Molecular target: T1, Amine oxidase [flavin-containing] A (Homo sapiens, UniProt P21397)
T1 sequence (P21397 whole entry): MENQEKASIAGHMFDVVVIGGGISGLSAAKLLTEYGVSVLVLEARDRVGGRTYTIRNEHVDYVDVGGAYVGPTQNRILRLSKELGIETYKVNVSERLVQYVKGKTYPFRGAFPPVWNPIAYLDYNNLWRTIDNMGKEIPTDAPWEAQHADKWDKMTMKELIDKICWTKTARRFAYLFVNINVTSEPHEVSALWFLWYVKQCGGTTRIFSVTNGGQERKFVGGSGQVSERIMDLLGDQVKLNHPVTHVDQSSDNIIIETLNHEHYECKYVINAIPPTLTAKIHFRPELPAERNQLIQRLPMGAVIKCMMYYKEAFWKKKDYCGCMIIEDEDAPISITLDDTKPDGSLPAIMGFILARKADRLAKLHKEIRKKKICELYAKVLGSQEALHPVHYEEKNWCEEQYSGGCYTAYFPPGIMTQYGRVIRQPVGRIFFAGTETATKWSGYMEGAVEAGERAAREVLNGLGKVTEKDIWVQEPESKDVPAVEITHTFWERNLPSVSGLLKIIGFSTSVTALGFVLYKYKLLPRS
Assay: Compound was tested for the inhibition of monoamine oxidase A (MAO A) from human liver

Work on `C[C@@H]1NC(=O)[C@H](NC(=O)[C@@H](N)Cc2ccc(O)cc2)C(C)(C)SSC(C)(C)[C@@H](C(O)O)NC(=O)[C@H](Cc2ccccc2)NC1=O` yielded a Ki of 2 µM.
